Test results reported in US9365597B2, “Mitochondria-targeted inhibitors of cytochrome c peroxidase for protection from apoptosis” (Brock University, priority 2011, dated 2016).

Key:
mouse embryonic cells [1] = experiment: ATP levels in mouse embryonic cells (bioluminescent kit); format: cell-based
Description: ATP levels in cells were measured using ATP bioluminescent somatic cell assay kit (St. Louis, Mo.) according to the manufacturer's instructions.

mouse embryonic cells [2] = experiment: Superoxide production in mouse embryonic cells (dihydroethidium, flow cytometry); format: cell-based; conditions: cells with or without radiation treatment (10 Gy); 2.5 and 5 μM, 18 hrs
Description: Cells were γ-irradiated at a dose of 10 Gy and then incubated with different concentrations of TPP-IOA or TPP-ISA (2.5 and 5 μM) for 18 hrs. To estimate superoxide generation, cells were incubated with 5 μM of dihydroethidium (DHE) for 30 min at 37° C. Collected cells were re-suspended in phosphate buffered saline (PBS) and fluorescence of 2-hydroxyethidium was analyzed using FACScan supplied with CellQuest software. Data are means±S.D., n=3. *p<0.01 vs. control cells (without any treatment).
A superoxide-meditated oxidation-sensitive fluorogenic dye, dihydroethidium (DHE), was utilized for assessments of superoxide production. Briefly, cells were incubated with 5 μM of DHE for 30 min. Cells were collected by trypsinization and re-suspended in PBS. The fluorescence of 2-hydroxyethidium was measured using a FACScan flow cytometer (BD Biosciences, San Jose, Calif.) supplied with the CellQuest software. Mean fluorescence intensity from 10,000 cells was acquired using a 585/42-nm band-pass filter.

cyt c/TOCL complexes = target: T1, cyt c/TOCL complexes (Equus caballus, UniProt P00004); experiment: Peroxidase activity of cyt c/TOCL complexes, H2O2-induced oxidation of Amplex Red to resorufin; format: biochemical; conditions: cyt c 1 μM, CL/cyt c 25:1, 50 μM Amplex Red, 50 μM H2O2, 20 min
T1 construct: purchased Sigma (St. Louis, Mo.)
T1 sequence (P00004 2-105 limits assumed, one chain of several): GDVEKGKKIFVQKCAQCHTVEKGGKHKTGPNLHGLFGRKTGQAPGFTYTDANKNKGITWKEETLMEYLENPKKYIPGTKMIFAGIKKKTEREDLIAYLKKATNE
Description: Conditions: cyt c (1 μM), H2O2 (50 μM), Amplex Red (50 μM). Experiments were performed in 20 mM HEPES buffer (pH 7.4) containing DTPA (100 μM), cyt c was incubated with DOPC/TOCL liposomes (1:1) at a ratio of TOCL:cyt c of 25:1.
Peroxidase activity of cyt c was assessed by oxidation of Amplex Red, etoposide or TLCL (tetra-linoleoyl-cardiolipin). Measurements of Amplex Red oxidation were performed using fluorescence of its oxidation product resorufin. Cyt c (1 μM) was incubated with tetra-oleoyl-cardiolipin (TOCL) containing liposomes (CL/cyt c ratio 25:1). Then 50 μM Amplex Red and 50 μM H2O2 were added, and the incubation proceeded for an additional 20 min. Fluorescence was detected by employing a “Fusion α” universal microplate analyzer and by using an excitation wavelength of 535 nm and an emission wavelength of 590 nm. EPR spectra of etoposide phenoxyl radicals were recorded at 25° C. in gas permeable Teflon tubings (inner diameter, 0.8 mm; thickness, 0.013; Alpha Wire Corp., Elizabeth, N.J.). Volume of samples was 60 μL. The spectra were recorded under the following conditions: 335.3 mT, center field; 2 mT, sweep width; 0.04 mT, field modulation; 10 mW, microwave power; 0.1 s, time constant; 2 min, time scan. The time course of the etoposide radical EPR signal was obtained by repeated scanning of the field (0.15 mT, sweep width; 335.3 mT, center field) corresponding to a part of the EPR signal. Peroxidase activity of mitochondria was determined by the formation of resorufin from Amplex Red. Isolated mouse liver mitochondria (0.6 mg/ml) were incubated in the presence of 100 μM Amplex Red and 2 mM tert-butyl hydroperoxide (tBOOH). After incubation at room temperature for 20 min, fluorescence of resurufin was measured.
Small unilamellar liposomes were prepared from dioleoylphosphatidylcholine (DOPC) and TOCL (1:1 ratio) or DOPC and TLCL (4:1 ratio) by sonication in HEPES buffer (20 mM with 100 μM diethylene triamine pentaacetic acid (DTPA) (pH 7.4) 3×60 sec, relaxation time 2 min, 4° C.).
Peroxidase activity of cyt c was assessed by oxidation of Amplex Red, etoposide or TLCL as described above.

SH-SY5Y cells = experiment: Oxygen-glucose deprivation (OGD) of SH-SY5Y cells, viability by WST-1 assay; format: cell-based, human; conditions: for fold change in viability compared to control cells: 24 hours of recovery after 8 hour OGD, mean±SEM
Description: SH-SY5Y cells were harvested from 100 mm diameter culture plates once 70-80% confluence was reached, and were then seeded on 96-well plates at a density of 3.0×10^4 cells per well in normal growth media. The cells were then incubated overnight (approximately 16 hours) under normal growth conditions to allow for attachment to plates. During this time, DMEM (supplemented with 25 mM HEPES, 4 mM L-glutamine, and 584 mg/L […]) with no glucose or serum to be used for OGD was incubated on a culture plate in the 3% oxygen, 5% carbon dioxide, 37° C. incubator to reduce the oxygen levels within the media. In the following morning, this plate of media was placed inside of a custom-built anoxic chamber that was continuously pumped with 95% nitrogen-5% carbon dioxide gas mixture from Praxair Canada (St. Catharines, ON, Canada) to further reduce/eliminate the amount of oxygen present in the media. 0.2% oxygen level within the chamber was reached within approximately 10 minutes, and the plate of media was incubated for 30 minutes under these conditions. After this period, the growth media on the 96-well plates of SH-SY5Y cells was removed, and carefully replaced with the de-oxygenated DMEM containing no glucose or serum. The plates of cells were then incubated in the anoxia chamber at 0.2% oxygen for 8 hours, continuously pumped with the 95% nitrogen-5% carbon dioxide gas mixture. An oxygen sensor was kept inside of the chamber, and the 0.2% oxygen level was monitored and maintained by a Roxy-1 universal regulator/controller (Sable Systems Int., Las Vegas, Nev., USA). Throughout the duration of the media de-oxygenation and OGD, the anoxic chamber was kept inside of a 37° C. […]
After the 8 hour period of OGD, the glucose/serum-free DMEM was carefully removed from the wells, and replaced with normal growth media containing TPP-IOA. The cells were incubated at their normal growth conditions, and viability was assessed after 24 and 48 hours of recovery with the use of the WST-1 cell proliferation assay.
For measurements, premixed WST-1 cell proliferation reagent was added to the wells of cells (ratio of 1:10 with growth media) cultured on 96-well flat bottomed plates. […] The plate was then shaken thoroughly for 1 minute on a plate shaker, and then absorbance at 450 nm, with a reference wavelength of 650 nm, was measured using a microplate reader (BioTek, Winooski, Vt., USA).
For data analysis, the background control and reference wavelength absorbance readings were subtracted from the 450 nm reading for each sample. The average absorbance reading for the 0 μM TPP-IOA treatment was then set equal to 1, and all sample readings were divided by the mean absorbance of the 0 μM TPP-IOA treatment to obtain a measure of fold change in viability compared to the control.

## CCCCCCC(C/C=C\CCCCCCCC(=O)OCCC[P+](c1ccccc1)(c1ccccc1)c1ccccc1)n1ccnc1.[Br-] (stereo not shown) [TPP-IOA]
Mouse embryonic cells [1]
  effect on ATP levels: Neither TPP-IOA nor TPP-ISA had any effect
Mouse embryonic cells [2]
  effect on superoxide production: neither TPP-IOA nor TPP-ISA had any effect
Cyt c/TOCL complexes
  inhibition of peroxidase activity of cyt c/TOCL complexes (Amplex Red oxidation): as effective as non-conjugated ISA and IOA
SH-SY5Y cells; 2.5 μM, p=0.017
  fold change in viability compared to control cells: 1.192±0.058 fold
SH-SY5Y cells; 5 μM, p=0.0094
  fold change in viability compared to control cells: 1.356±0.074 fold
SH-SY5Y cells; 10 μM, non-significant p=0.0955
  fold change in viability compared to control cells: 1.179±0.038 fold
SH-SY5Y cells; 48 hours of recovery after 8 hour OGD
  viability after 48 hours of incubation: no significant improvements in viability

## CCCCCCC(CCCCCCCCCCC(=O)OCCC[P+](c1ccccc1)(c1ccccc1)c1ccccc1)n1ccnc1.[Br-] (stereo not shown) [TPP-ISA]
Mouse embryonic cells [1]
  effect on ATP levels: Neither TPP-IOA nor TPP-ISA had any effect
Mouse embryonic cells [2]
  effect on superoxide production: neither TPP-IOA nor TPP-ISA had any effect
Cyt c/TOCL complexes
  inhibition of peroxidase activity of cyt c/TOCL complexes (Amplex Red oxidation): as effective as non-conjugated ISA and IOA
